Results as given in ChEMBL document CHEMBL4406817, “Cell-active carbazole derivatives as inhibitors of the zika virus protease” (Eur J Med Chem, 2019).
Active and inactive are the calls of the source. No cut-off for these calls is given here.

How the values were obtained:
Nonstructural protein 3 [1] = molecular target: T1, Nonstructural protein 3 (Zika virus, UniProt A0A024AXB9); test: (§1) Inhibition of N-terminal unlinked Zika virus NS2B (45 to 96 residues) - NS3 (1 to 177 residues) protease domain expressed in Escherichia coli Bl21(DE3) using Bz-nKRR-AMC as substrate preincubated for 15 mins followed by substrate addition and measured by fluorescence based assay
[2] = Selectivity index, ratio of CC50 for cytotoxicity against human HuH7 cells to EC50 for antiviral activity against H/PF/2013 Zika virus infected in human HuH7 cells; assay type: toxicity, cell-based; conditions: for selectivity ratio: HuH7 cells, read-out: Ratio CC50/EC50
Zika virus [3] = test: Antiviral activity against Zika virus H/PF/2013 infected in human HuH7 cells assessed as reduction in viral titer incubated for 24 hrs by plague assay; assay type: functional, organism-based
[4] = Cytotoxicity against human HuH7 cells assessed as reduction in cell viability incubated for 48 hrs by cellTiter-Glo assay; assay type: cell-based, Huh-7
[5] = Selectivity index, ratio of EC50 of antiviral activity against Zika virus infected in human HuH7 cells to IC50 of inhibition of N-terminal unlinked Zika virus NS2B (45 to 96 residues) - NS3 (1 to 177 residues) protease domain expressed in Escherichia coli Bl21(DE3); assay type: toxicity
Nonstructural protein 3 [6] = molecular target: T1, Nonstructural protein 3; test: Inhibition of N-terminal His6-tagged Zika virus NS2B (45 to 96 residues) - NS3 (1 to 177 residues) protease domain expressed in Escherichia coli Bl21(DE3) using Bz-nKRR-AMC as substrate preincubated for 30 mins in presence of bZipro and measured for 60 sec over 10 mins by fluorescence based assay
Nonstructural protein 3 [7] = molecular target: T1, Nonstructural protein 3; test: Inhibition of N-terminal linked Zika virus NS2B (45 to 96 residues) - NS3 (1 to 177 residues) protease domain expressed in Escherichia coli Bl21(DE3) using Bz-nKRR-AMC as substrate preincubated for 15 mins followed by substrate addition and measured by fluorescence based assay
Nonstructural protein 3 [8] = molecular target: T1, Nonstructural protein 3; test: Inhibition of N-terminal His-tagged Zika virus NS2B (46 to 99 residues) - NS3 (1 to 187 residues) protease domain expressed in Rosetta2-(DE3) assessed as inhibitory constant using Boc-Gly-Arg-Arg-AMC as substrate and measured for 10 mins by fluorescence based assay
Nonstructural protein 3 [9] = molecular target: T1, Nonstructural protein 3; test: Inhibition of N-terminal His6-tagged Zika virus NS2B (46 to 99 residues) - NS3 (1 to 187 residues) protease domain expressed in Rosetta2-(DE3) using Boc-Gly-Arg-Arg-AMC as substrate preincubated for 10 mins followed by substrate addition and measured for 6 mins by fluorescence based assay
Zika virus [10] = test: Antiviral activity against Zika virus; assay type: functional, organism-based
Nonstructural protein 3 [11] = molecular target: T1, Nonstructural protein 3; test: Inhibition of N-terminal His6-tagged Zika virus NS2B (49 to 95 residues) - NS3 (1 to 170 residues) protease domain expressed in Escherichia coli Bl21(DE3) using Bz-Nle-Lys-Lys-Arg-AMC as substrate preincubated for 10 mins followed by substrate addition measured after 10 mins by fluorescence based assay
[12] = molecular target: Nonstructural protein 3 (Zika virus) (UniProt A0A024AXB9); test: as §1, with “Non-competitive inhibition” for “Inhibition”, “30” for “15”, “measured for every 60 sec over 12 mins” for “measured”, “Lineweaver-burk plot analysis” for “assay”
Nonstructural protein 3 [13] = molecular target: T1, Nonstructural protein 3; test: Inhibition of N-terminal His-tagged Zika virus NS2B (49 to 95 residues) - NS3 (1 to 185 residues) protease domain expressed in Escherichia coli Bl21(DE3) using TAMRA-RRRRSAG-GXL570 as substrate preincubated for 30 mins followed by substrate addition measured after 1 hr by fluorescence based assay
[14] = Selectivity index, ratio of EC50 of antiviral activity against Zika virus infected in human A549 cells to IC50 of inhibition of N-terminal His6-tagged Zika virus NS2B (49 to 95 residues) - NS3 (1 to 185 residues) protease domain expressed in Escherichia coli Bl21(DE3); assay type: toxicity
[15] = Cytotoxicity against human A549 cells assessed as reduction in cell viability incubated for 42 hrs by WST-8 assay; assay type: cell-based
[16] = Zika virus, H/PF/2013, Huh-7, 24 h, read-out: EC50

T1 sequence (A0A024AXB9 whole entry, the tested form may be a part): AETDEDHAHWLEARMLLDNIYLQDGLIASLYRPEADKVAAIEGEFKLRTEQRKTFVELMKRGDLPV
Sequence of Nonstructural protein 3 (Zika virus) (A0A024AXB9 as listed by the source): as the sequence (A0A024AXB9 whole entry, the tested form may be a part) above

Compound | IC50 (Nonstructural protein 3 [1]) [µM] | selectivity ratio [2] | EC50 (Zika virus [3]; [16]) [µM] | CC50 at 48 h [4] [µM] | further results
COc1cccc(S(=O)(=O)n2c3ccc(-c4cccc(C(=N)N)c4)cc3c3cc(-c4cccc(C(=N)N)c4)ccc32)c1 | 0.99 | > 4 | 23.8 | > 100 | Selectivity Index [5]: 1 to 10
COc1ccc(S(=O)(=O)n2nc(OC(=O)c3cccc(-c4ccccc4Cl)c3)cc2N)cc1 |  |  |  |  | IC50 (Nonstructural protein 3 [6]): 0.1 µM
Cn1c2ccc(-c3cccc(C#N)c3)cc2c2cc(-c3cccc(C(=N)N)c3)ccc21 | 1.7 |  |  | 6.25 | EC50 (Zika virus [3]): Not Active
N=C(N)c1cccc(-c2ccc3c(c2)c2cc(Br)ccc2n3S(=O)(=O)c2cccc(C(=N)N)c2)c1 | 9.19 | 4.2 | 5.9 | 35.7 | Selectivity Index [5]: 1 to 10
N=C(N)c1cccc(NC(=O)Nc2cccc(C(=N)N)c2)c1 [AMICARBALIDE] |  |  |  |  | IC50 (Nonstructural protein 3 [7]): 47.6 µM
COc1ccc(Cl)c2sc(NC(=O)c3ccccc3NS(=O)(=O)c3ccc(C)cc3)nc12 |  |  |  |  | Ki (Nonstructural protein 3 [8]): 9 µM; IC50 (Nonstructural protein 3 [9]): 4.1 µM
COc1cccc(Cn2c3ccc(-c4cccc(C#N)c4)cc3c3cc(-c4cccc(C(=N)N)c4)ccc32)c1 | 1.91 | 2.8 | 1.95 | 3.3 | 
N=C(N)c1cccc(Cn2c3ccc(Br)cc3c3cc(Br)ccc32)c1 | 25.6 | 2.51 | 5.09 | 12.8 | 
CO[C@@H]1[C@@H](OC(N)=O)[C@@H](O)[C@H](Oc2ccc3c(O)c(NC(=O)c4ccc(O)c(CC=C(C)C)c4)c(=O)oc3c2C)OC1(C)C [NOVOBIOCIN] |  |  |  |  | EC50 (Zika virus [10]): 62.2 µM
CC(C)C[C@H]1C(=O)N2CCC[C@H]2[C@]2(O)O[C@](NC(=O)[C@@H]3C=C4c5cccc6[nH]c(Br)c(c56)C[C@H]4N(C)C3)(C(C)C)C(=O)N12 [BROMOCRIPTINE] |  |  |  |  | IC50 (Nonstructural protein 3 [11]): 13 µM
N=C(N)c1cccc(-c2ccc3ccc(-c4cccc(C(=N)N)c4)cc3c2)c1 | 32.5 |  | 4.95 |  | IC50 (Nonstructural protein 3 [7]): 49.5 µM
N#Cc1cccc(-c2ccc3c(c2)c2cc(-c4cccc(C#N)c4)ccc2n3Cc2cccc(C(=N)N)c2)c1 | 14.9 |  |  | 7.48 | EC50 (Zika virus [3]): Not Active
N#Cc1cccc(-c2ccc3c(c2)c2cc(-c4cccc(C#N)c4)ccc2n3S(=O)(=O)c2cccc(C(=N)N)c2)c1 | 3.5 |  |  | 3.35 | EC50 (Zika virus [3]): Not Active
N=C(N)c1cccc(-c2cccc(-c3cccc(C(=N)N)c3)c2)c1 | 38.3 |  |  |  | IC50 (Nonstructural protein 3 [7]): 104 µM
COc1cccc(S(=O)(=O)n2c3ccc(Br)cc3c3cc(-c4cccc(C(=N)N)c4)ccc32)c1 | 8.1 |  |  | 5.22 | Ratio CC50/EC50 [2]: Not Active; EC50 (Zika virus [3]): Not Active
Cn1c2ccc(-c3cccc(C(=N)N)c3)cc2c2cc(-c3cccc(C(=N)N)c3)ccc21 | 0.52 | 38 | 1.25 | 47.5 | IC50 (Nonstructural protein 3 [7]): 3.65 µM; inhibition [12]: Active; Selectivity Index [5]: 3
O=C1C=C/C(=N/Nc2ccc([N+](=O)[O-])cc2Cl)C=C1C(=O)Nc1cccc(Cl)c1 |  |  |  |  | IC50 (Nonstructural protein 3 [13]): 0.38 µM; Selectivity Index [14]: 48; CC50 at 42 h [15]: 48.8 µM
COc1cccc(Cn2c3ccc(Br)cc3c3cc(-c4cccc(C(=N)N)c4)ccc32)c1 | 4.04 | 2.3 | 2.27 | 5.3 | 
COc1cccc(S(=O)(=O)n2c3ccc(-c4cccc(C#N)c4)cc3c3cc(-c4cccc(C(=N)N)c4)ccc32)c1 | 0.82 | 2.37 | 16 | 37.9 | Selectivity Index [5]: 1 to 10
Cn1c2ccc(Br)cc2c2cc(-c3cccc(C(=N)N)c3)ccc21 | 13.9 | 5.42 | 1.35 | 6.57 | 
N=C(N)c1cccc(S(=O)(=O)n2c3ccc(Br)cc3c3cc(Br)ccc32)c1 | 14.2 | 4.14 | 3.26 | 6.58 | 
COc1cccc(Cn2c3ccc(-c4cccc(C(=N)N)c4)cc3c3cc(-c4cccc(C(=N)N)c4)ccc32)c1 | 1.75 | 3.4 | 6.37 | 22.7 | Selectivity Index [5]: 1 to 10
